Measured values from US4680386A, “6-O-methylerythromycin a derivative” (Taisho Pharmaceutical Co., Ltd., priority 1984, dated 1987).
In brackets after ≈: the same amount, converted by molar mass. Like-named read-outs stand apart in the source and are kept apart here.

Tests used:
[1] = test system: Baccilus cereus ATCC 9634; assay: In vitro antibacterial activity (MIC method specified by the Japan Chemotherapeutic Society); assay type: cell-based; conditions: sensitive media (Eiken), read-out: MIC value (minimum inhibitory concentration)
Experimental: (§1) The antibacterial activity of the compound I against various bacteria was measured using sensitive media (produced by Eiken Co.) according to the MIC method specified by the Japan Chemotherapeutic Society. Erythromycin A was used as a control.

[2] = test system: Bacillus subtilis ATCC 6633; assay: as above; assay type: cell-based
Experimental: as §1

[3] = test system: Escherichia coli NIHJ JC-2; assay: as above; assay type: cell-based; conditions: NIHJJC2, sensitive media (Eiken), read-out: MIC value (minimum inhibitory concentration)
Experimental: as §1

[4] = test system: Staphylococcus aureus FDA 209P; assay: as above; assay type: cell-based; conditions: FDA209P, read-out: MIC value (minimum inhibitory concentration)
Experimental: as §1

[5] = test system: Staphylococcus aureus Smith No. 4; assay: as above; assay type: cell-based; conditions: read-out: MIC value (minimum inhibitory concentration)
Experimental: as §1

[6] = test system: Streptococcus epidermidis sp-al-l; assay: as above; assay type: cell-based; conditions: read-out: MIC value (minimum inhibitory concentration)
Experimental: as §1

[7] = test system: Streptococcus faecalis 8043; assay: as above; assay type: cell-based
Experimental: as §1

[8] = test system: Staphylococcus aureus Smith No. 4; assay: In vivo antibacterial activity, oral treatment of intraperitoneally infected mice; design: species or system ICR mice; conditions: for number of mice surviving for 7 days after the infection: one hour after infection, 10 mice per group
Experimental: 10 male ICR mice (Charles River) being of the average body weight 23 g were used for each group. Staphylococcus aureus Smith No. 4 was grown on heart infusion agar medium at 37° C. for 18 hours. The bacteria were suspended in BSG (containing 8.5 g of NaCl, 300 mg of KH2 PO4, 600 mg of Na2 HPO4, 100 mg of gelatin and 1000 ml of water) to show 6×10^7 cfu/ml (containing 5% of mucin). The bacterial suspension (0.5 ml) was injected intraperitoneally to each groups of mice for infection. Erythromycin A and erythromycin A 9-oxime were used as control. An hour after infection, each compound was administered orally to different groups of animals in the specified amounts to study its therapeutic effect.
The therapeutic effect of the drugs was judged by the […] value calculated from the number of mice surviving for 7 days after the infection according to the method of Litchfield-Wilcoxon.

bacteria = assay: Antibacterial activity (general statement); conditions: general statement in words
[9] = test system: Staphylococcus aureus Smith No. 4; assay: In vivo antibacterial activity, oral treatment of intraperitoneally infected mice; design: species or system ICR mice; conditions: one hour after infection, 7-day survival, Litchfield-Wilcoxon, 95% confidence limits given

For `CC[C@H]1OC(=O)[C@H](C)[C@@H](O[C@H]2C[C@@](C)(OC)[C@@H](O)[C@H](C)O2)[C@H](C)[C@@H](O[C@@H]2O[C@H](C)C[C@H](N(C)C)[C@H]2O)[C@](C)(OC)C[C@@H](C)C(=NO)[C@H](C)[C@@H](O)[C@]1(C)O` [Compound I, 6-O-methylerythromycin A 9-oxime], the MIC [1] was 0.1 µg/mL (≈ 0.131 µM), the MIC ([2]; ATCC6633, Bacillus subtilis ATCC 6633, sensitive media (Eiken), read-out: MIC value (minimum inhibitory concentration)) was 0.1 µg/mL (≈ 0.131 µM) and the MIC [3] was 50 µg/mL (≈ 65.5 µM). It also gave an MIC ([4]; Staphylococcus aureus FDA 209P, sensitive media (Eiken)) of 0.1 µg/mL (≈ 0.131 µM), an MIC ([5]; Staphylococcus aureus Smith No. 4, sensitive media (Eiken)) of 0.1 µg/mL (≈ 0.131 µM) and an MIC ([6]; Streptococcus epidermidis sp-al-l, sensitive media (Eiken)) of 0.2 µg/mL (≈ 0.262 µM). The MIC ([7]; Enterococcus faecalis, Streptococcus faecalis 8043, sensitive media (Eiken), read-out: MIC value (minimum inhibitory concentration)) was at most 0.05 µg/mL, the “number of mice surviving for 7 days after the infection” value (“number of mice surviving for 7 days” below) ([8]; 0.2 mg/mouse) was 1/10 and the “number of mice surviving for 7 days” value ([8]; 0.4 mg/mouse) was 4/10. For the same compound, the “number of mice surviving for 7 days” value ([8]; 0.8 mg/mouse) was 7/10, the “antibacterial activity by oral administration” value ([8]; compared with erythromycin A or erythromycin A 9-oxime) was “far superior to erythromycin A or erythromycin A 9-oxime” and the antibacterial activity (bacteria) was “strong antibacterial activity”. It also gave an ED50 [9] of 0.516 mg/mouse.
For `CC[C@H]1OC(=O)[C@H](C)[C@@H](O[C@H]2C[C@@](C)(OC)[C@@H](O)[C@H](C)O2)[C@H](C)[C@@H](O[C@@H]2O[C@H](C)C[C@H](N(C)C)[C@H]2O)[C@](C)(O)C[C@@H](C)C(=NO)[C@H](C)[C@@H](O)[C@]1(C)O` [Erythromycin A 9-oxime, erythromycin A 9-oxime], the “number of mice surviving for 7 days” value ([8]; 0.5 mg/mouse) was 0/10, the “number of mice surviving for 7 days” value ([8]; 1 mg/mouse) was 3/10 and the “number of mice surviving for 7 days” value ([8]; 2 mg/mouse) was 7/10. It also gave an ED50 [9] of 1.418 mg/mouse.
Compound `CC[C@H]1OC(=O)[C@H](C)[C@@H](O[C@H]2C[C@@](C)(OC)[C@@H](O)[C@H](C)O2)[C@H](C)[C@@H](O[C@@H]2O[C@H](C)C[C@H](N(C)C)[C@H]2O)[C@](C)(O)C[C@@H](C)C(=O)[C@H](C)[C@@H](O)[C@]1(C)O` [Erythromycin A, erythromycin A] has an MIC [1] of 0.2 µg/mL (≈ 0.273 µM), an MIC ([2]; Bacillus subtilis, ATCC6633, read-out: MIC value (minimum inhibitory concentration)) of 0.1 µg/mL (≈ 0.136 µM) and an MIC [3] of 50 µg/mL (≈ 68.1 µM). For the same compound, the MIC ([4]; Staphylococcus aureus) was 0.2 µg/mL (≈ 0.273 µM), the MIC ([5]; Staphylococcus aureus) was 0.1 µg/mL (≈ 0.136 µM) and the MIC ([6]; Streptococcus) was 0.2 µg/mL (≈ 0.273 µM). For the same compound, the MIC ([7]; Enterococcus faecalis, 8043, read-out: MIC value (minimum inhibitory concentration)) was at most 0.05 µg/mL, the “number of mice surviving for 7 days” value ([8]; 1 mg/mouse) was 1/10 and the “number of mice surviving for 7 days” value ([8]; 2 mg/mouse) was 8/10. The “number of mice surviving for 7 days” value ([8]; 4 mg/mouse) was 10/10 and the ED50 [9] was 1.517 mg/mouse.
